Data taken from paper PMC11995724, “Antibiotic target discovery by integrated phenotypic and activity-based profiling of electrophilic fragments” (Cell chemical biology, 2025).

Assay: in vitro
Settings: human, hek293t cells

| SMILES | viability at 48 h, 25 µM |
| --- | --- |
| C=CC(=O)N1CCCC(CNC(C)=O)C1 (stereo not drawn) [3-E15, N-{[1-(prop-2-enoyl)piperidin-3-yl]methyl}acetamide] | 46.4% |
| C=CC(=O)N1CCC(C(=O)Nc2ccc3c(c2)CCN3C(N)=O)CC1 [3-E16, 5-[1-(prop-2-enoyl)piperidine-4-amido]-2,3-dihydro-1H-indole-1-carboxamide] | 101% |
| C=CC(=O)N1CCC(C(=O)N[C@]2(C(=O)OC)CC[C@@H](C)CC2)CC1 [3-E17, methyl (1r,4r)-4-methyl-1-[1-(prop-2-enoyl)piperidine-4-amido]cyclohexane-1-carboxylate] | 57% |
| C=CC(=O)NCc1ncoc1C(F)(F)F [3-E18, N-{[5-(trifluoromethyl)-1,3-oxazol-4-yl]methyl}prop-2-enamide] | 93.1% |
| C=CC(=O)NCc1ccc(C(=O)N2CCCC(c3nnc[nH]3)C2)cc1 (stereo not drawn) [3-E19, N-({4-[3-(4H-1,2,4-triazol-3-yl)piperidine-1-carbonyl]phenyl}methyl)prop-2-enamide] | 34.3% |
| C=CC(=O)N1CCC(C(=O)Nc2ccc(N)c([N+](=O)[O-])c2)CC1 [3-E20, N-(4-amino-3-nitrophenyl)-1-(prop-2-enoyl)piperidine-4-carboxamide] | 56.7% |
| C=CC(=O)N(CC)CC(=O)N1CCNC(=O)CC1c1ccccc1 (stereo not drawn) [3-E21, N-ethyl-N-[2-oxo-2-(5-oxo-7-phenyl-1,4-diazepan-1-yl)ethyl]prop-2-enamide] | 33.1% |
| C=CC(=O)N1CCC(C(=O)N[C@@H](C)c2ccc(Cl)s2)CC1 [3-E22, N-[(1S)-1-(5-chlorothiophen-2-yl)ethyl]-1-(prop-2-enoyl)piperidine-4-carboxamide] | 65.7% |
| C=CC(=O)N(CC)CC(=O)N1CCCC(c2nccn2C)C1 (stereo not drawn) [3-F03, N-ethyl-N-{2-[3-(1-methyl-1H-imidazol-2-yl)piperidin-1-yl]-2-oxoethyl}prop-2-enamide] | 106% |
| C=CC(=O)N1CCCCC1c1nc2ccccc2n1C (stereo not drawn) [3-F04, 1-[2-(1-methyl-1H-1,3-benzodiazol-2-yl)piperidin-1-yl]prop-2-en-1-one] | 84.2% |
| C=CC(=O)N1CCC(C(=O)Nc2cccc(NC(=O)C(C)C)c2)CC1 [3-F05, N-[3-(2-methylpropanamido)phenyl]-1-(prop-2-enoyl)piperidine-4-carboxamide] | 53.3% |
| C=CC(=O)NCCC(=O)N1CCN(c2nc(C)cs2)CC1 [3-F07, N-{3-[4-(4-methyl-1,3-thiazol-2-yl)piperazin-1-yl]-3-oxopropyl}prop-2-enamide] | 52.1% |
| C=CC(=O)NCCC(=O)N1CCc2cc(C)c([N+](=O)[O-])cc21 [3-F08, N-[3-(5-methyl-6-nitro-2,3-dihydro-1H-indol-1-yl)-3-oxopropyl]prop-2-enamide] | 82.7% |
| C=CC(=O)NC(C)c1ccc2c(c1)CCC2 (stereo not drawn) [3-F09, N-[1-(2,3-dihydro-1H-inden-5-yl)ethyl]prop-2-enamide] | 72.3% |
| C=CC(=O)NCc1nnc(COC)[nH]1 [3-F10, N-{[5-(methoxymethyl)-4H-1,2,4-triazol-3-yl]methyl}prop-2-enamide] | 102% |
| C=CC(=O)NCc1cccc(CNS(C)(=O)=O)c1 [3-F11, N-{[3-(methanesulfonamidomethyl)phenyl]methyl}prop-2-enamide] | 95.9% |
| C=CC(=O)N1CCC(C(=O)N[C@H]2CCOc3c(F)cccc32)CC1 [3-F12, N-[(4S)-8-fluoro-3,4-dihydro-2H-1-benzopyran-4-yl]-1-(prop-2-enoyl)piperidine-4-carboxamide] | 64.9% |
| C=CC(=O)N(CCC(N)=O)C1CCOc2ccccc21 (stereo not drawn) [3-F13, N-(2-carbamoylethyl)-N-(3,4-dihydro-2H-1-benzopyran-4-yl)prop-2-enamide] | 69.2% |
| C=CC(=O)Nc1cc(C)cc(S(C)(=O)=O)c1 [3-F14, N-(3-methanesulfonyl-5-methylphenyl)prop-2-enamide] | 94.1% |
| C=CC(=O)N(C)Cc1cn(C)nc1C(C)C [3-F15, N-methyl-N-{[1-methyl-3-(propan-2-yl)-1H-pyrazol-4-yl]methyl}prop-2-enamide] | 80.7% |
| C=CC(=O)Nc1ccccc1CNS(C)(=O)=O [3-F16, N-[2-(methanesulfonamidomethyl)phenyl]prop-2-enamide] | 104% |
| C=CC(=O)NC(Cn1cncn1)c1ccccc1 (stereo not drawn) [3-F17, N-[1-phenyl-2-(1H-1,2,4-triazol-1-yl)ethyl]prop-2-enamide] | 71.9% |
| C=CC(=O)NC1CCC(S(C)(=O)=O)C1 (stereo not drawn) [3-F18, N-(3-methanesulfonylcyclopentyl)prop-2-enamide] | 94.3% |
| C=CC(=O)NCC1CCCN1S(=O)(=O)CC (stereo not drawn) [3-F19, N-{[1-(ethanesulfonyl)pyrrolidin-2-yl]methyl}prop-2-enamide] | 68.6% |
| C=CC(=O)NCc1cc(C(F)(F)F)on1 [3-F20, N-{[5-(trifluoromethyl)-1,2-oxazol-3-yl]methyl}prop-2-enamide] | 84.8% |
| C=CC(=O)NCCN1CCn2nccc2C1 [3-F21, N-(2-{4H,5H,6H,7H-pyrazolo[1,5-a]pyrazin-5-yl}ethyl)prop-2-enamide] | 72.8% |

| SMILES | viability at 48 h, 25 µM |
| --- | --- |
| C=CC(=O)N1CCN(Cc2cc(=O)n3ccsc3n2)CC1 [3-F22, 7-{[4-(prop-2-enoyl)piperazin-1-yl]methyl}-5H-[1,3]thiazolo[3,2-a]pyrimidin-5-one] | 90.5% |
| C=CC(=O)N1C2C=C(c3nccn3C)CC1CC2 (stereo not drawn) [3-G03, 1-[3-(1-methyl-1H-imidazol-2-yl)-8-azabicyclo[3.2.1]oct-2-en-8-yl]prop-2-en-1-one] | 52.5% |
| C=CC(=O)N(C)CC(=O)Nc1ccc(C)c(S(=O)(=O)N(C)C)c1 [3-G04, N-({[3-(dimethylsulfamoyl)-4-methylphenyl]carbamoyl}methyl)-N-methylprop-2-enamide] | 78.3% |
| C=CC(=O)N(C)c1ccc(C#N)c(Cl)c1 [3-G05, N-(3-chloro-4-cyanophenyl)-N-methylprop-2-enamide] | 0.69% |
| C=CC(=O)NC1CCN(c2nnnn2C)CC1 [3-G06, N-[1-(1-methyl-1H-1,2,3,4-tetrazol-5-yl)piperidin-4-yl]prop-2-enamide] | 79.8% |
| C=CC(=O)N(CC)CC(=O)N1CCNC(=O)C1c1cccs1 (stereo not drawn) [3-G07, N-ethyl-N-{2-oxo-2-[3-oxo-2-(thiophen-2-yl)piperazin-1-yl]ethyl}prop-2-enamide] | 40% |
| C=CC(=O)Nc1ccnn1CC1CC1 [3-G09, N-[1-(cyclopropylmethyl)-1H-pyrazol-5-yl]prop-2-enamide] | 41.5% |
| C=CC(=O)N1CCCN(S(=O)(=O)c2ccc(OC)cc2)CC1 [3-G10, 1-[4-(4-methoxybenzenesulfonyl)-1,4-diazepan-1-yl]prop-2-en-1-one] | 96.8% |
| C=CC(=O)N1CCN(Cc2nc(C(C)C)no2)CC1 [3-G11, 1-(4-{[3-(propan-2-yl)-1,2,4-oxadiazol-5-yl]methyl}piperazin-1-yl)prop-2-en-1-one] | 55.2% |
| C=CC(=O)N1CCCC1c1cc(C)no1 (stereo not drawn) [3-G12, 1-[2-(3-methyl-1,2-oxazol-5-yl)pyrrolidin-1-yl]prop-2-en-1-one] | 91.7% |
| C=CC(=O)N1CCC(C(=O)NC(C)c2cccc(C(F)(F)F)c2)CC1 (stereo not drawn) [3-G13, 1-(prop-2-enoyl)-N-{1-[3-(trifluoromethyl)phenyl]ethyl}piperidine-4-carboxamide] | 40.6% |
| C=CC(=O)Nc1cccc(OC(C)(C)C)c1 [3-G14, N-[3-(tert-butoxy)phenyl]prop-2-enamide] | 85.8% |
| C=CC(=O)N1CCCC(NS(=O)(=O)c2cccc(F)c2)C1 (stereo not drawn) [3-G15, 3-fluoro-N-[1-(prop-2-enoyl)piperidin-3-yl]benzene-1-sulfonamide] | 58% |
| C=CC(=O)NCC1=NOCC1 [3-G16, N-[(4,5-dihydro-1,2-oxazol-3-yl)methyl]prop-2-enamide] | 104% |
| C=CC(=O)NCc1ccc(C(=O)N2CCN(C(C)=O)CC2)cc1 [3-G17, N-{[4-(4-acetylpiperazine-1-carbonyl)phenyl]methyl}prop-2-enamide] | 32.9% |
| C=CC(=O)NCCC(=O)N1CCSC(C)(C)C1 [3-G18, N-[3-(2,2-dimethylthiomorpholin-4-yl)-3-oxopropyl]prop-2-enamide] | 101% |
| C=CC(=O)NCCC(=O)N1CCC(C)(C)S(=O)(=O)CC1 [3-G19, N-[3-(7,7-dimethyl-1,1-dioxo-1lambda6,4-thiazepan-4-yl)-3-oxopropyl]prop-2-enamide] | 41.2% |
| C=CC(=O)NCC1CCN(Cc2ccccc2)CC1C (stereo not drawn) [3-G20, N-[(1-benzyl-3-methylpiperidin-4-yl)methyl]prop-2-enamide] | 94.1% |
| C=CC(=O)N1CCCC(CNS(=O)(=O)C2CC2)C1 (stereo not drawn) [3-G21, N-{[1-(prop-2-enoyl)piperidin-3-yl]methyl}cyclopropanesulfonamide] | 50.6% |
| C=CC(=O)NCCc1nnc(C)s1 [3-G22, N-[2-(5-methyl-1,3,4-thiadiazol-2-yl)ethyl]prop-2-enamide] | 78.3% |
| C=CC(=O)N1CCC(C(=O)NCc2cc(C)c[nH]c2=O)CC1 [3-H03, N-[(5-methyl-2-oxo-1,2-dihydropyridin-3-yl)methyl]-1-(prop-2-enoyl)piperidine-4-carboxamide] | 81.3% |
| C=CC(=O)N1CCC(C(=O)OCC)(S(C)(=O)=O)CC1 [3-H04, ethyl 4-methanesulfonyl-1-(prop-2-enoyl)piperidine-4-carboxylate] | 93.3% |
| C=CC(=O)N1CCC(C(=O)NCc2ncccc2OC)CC1 [3-H05, N-[(3-methoxypyridin-2-yl)methyl]-1-(prop-2-enoyl)piperidine-4-carboxamide] | 73.5% |
| C=CC(=O)Nc1ccc(N(C)S(=O)(=O)CC)cc1 [3-H06, N-[4-(N-methylethanesulfonamido)phenyl]prop-2-enamide] | 87.8% |
| C=CC(=O)N1CCC(C(=O)NC2(CO)CCSCC2)CC1 [3-H07, N-[4-(hydroxymethyl)thian-4-yl]-1-(prop-2-enoyl)piperidine-4-carboxamide] | 67.5% |
